Experiment [1] relates to relapsed and refractory small cell lung cancer. Description: Phase Ib clinical trial of Chiauranib monotherapy for relapsed and refractory small cell lung cancer, with ctDNA biomarker study (KDM5A, ATRX). The class given is in vivo, human. The method, then:
According to the present invention, a phase Ib clinical trial of using Chiauranib capsules to treat relapsed and refractory small cell lung cancer was carried out, and a concomitant study of efficacy-related biomarkers for 548 tumor-related genes was carried out by detecting and analyzing plasma free tumor DNA (ctDNA). Blood samples were taken from all patients before enrollment, and gene sequences of tumor-related genes were detected, including gene mutations and copy number abnormalities. According to detection results, genes with mutation rates of more than 0.4% were all selected, and progression free survival (PFS) and objective response rates (ORR) of patients were taken as efficacy indicators to analyze the correlation between tumor-related gene abnormalities and the efficacy of Chiauranib.
Test drug: Chiauranib capsules, with specifications of 5 mg and 25 mg. They were manufactured by Shenzhen Chipscreen Biosciences Co., Ltd.
Dosing regimen: the Chiauranib capsules were administered QD at 50 mg/day (not adjusted according to the body weight or the body surface area). The capsules were taken on an empty stomach every morning with water, and the whole capsules were swallowed completely. Continuous administration for 28 days was one treatment cycle, and there was no interval during each treatment cycle.
Number of cases: 25 patients were enrolled.
The test subjects took 50 mg of Chiauranib capsules orally once daily, every 28 days was taken as one treatment cycle, and there was no withdrawal interval during the treatment cycles. All subjects received continuous treatment throughout the trial period until any one of the following occurred (whichever occurred first): progressed disease, intolerable toxicity, death, withdrawal of the informed consent, or loss to follow-up.
Efficacy evaluation: according to the RECIST 1.1 criteria, evaluations were respectively performed in the baseline period and at the end of the 4th week after treatment, and repeated every 8 weeks until a progressive disease occurred. Tumor imageological examinations included CT or MRI of neck, chest, whole abdomen, and pelvic cavity. Other site examinations should be performed as necessary according to clinical indications. The same technologies and methods should be used for baseline of lesions and subsequent evaluation and measurement.
10 mL of peripheral blood was taken before the subjects took Chiauranib for the first time and when a progressive disease occurred, gene sequences of plasma free tumor DNA (ctDNA) and leukocyte extracted DNA (control) were detected, a total of 548 tumor-related genes were included, and detection results included gene mutations and copy number abnormalities, as well as analysis of tumor mutation burden (TMB).
Plasma free tumor DNA (ctDNA) of the evaluated patients was detected and analyzed, and a concomitant study of efficacy-related biomarkers for the 548 tumor-related genes was carried out. According to detection results, genes with mutation rates of more than 0.4% were all selected, and progression free survival (PFS) and objective response (PR) of the patients were taken as efficacy indicators to analyze the correlation between tumor-related gene abnormalities and the efficacy of Chiauranib.

The test system of the next experiment is SCLC. To be noted: topotecan combined optimal supportive treatment vs optimal supportive treatment alone; cited from earlier work.

“And” between values parts separate entries of the source, which are not always exact repeats. Identical values can stand only once.

`COc1ccc2c(Oc3ccc4c(C(=O)Nc5ccccc5N)cccc4c3)ccnc2c1` [Chiauranib, N-(2-aminophenyl)-6-(7-methoxyquinolin-4-oxy)-1-naphthamide]: the “efficacy of monotherapy in the treatment of small cell lung cancer” value in experiment [1] (50 mg QD oral) is “effective”. In experiment [1] (20 evaluated patients, 50 mg QD oral), the benefit rate was 60%. The compound also returned an ORR in experiment [1] (20 evaluated patients, 50 mg QD oral, RECIST 1.1) of 20%. Moreover, in experiment [1] (ATRX mutation (6 patients)), the “Non-response (SD + PD), number of patients” value was 2 patients; the “Non-response (SD + PD), share of patients” value turned out to be 33.3%; the “Objective response (PR), number of patients” value is listed as 4 patients; the “Objective response (PR), share of patients” value was 66.7%. In addition, in experiment [1] (ATRX wild type (14 patients)), the “Non-response (SD + PD), number of patients” value is reported as 14 patients; the “Non-response (SD + PD), share of patients” value is recorded as 100.0%; the “Objective response (PR), number of patients” value is listed as 0 patients; the “Objective response (PR), share of patients” value came to 0%. Further, in experiment [1] (KDM5A wild type vs mutation, P value 0.0087), the “PFS Hazard ratio (HR)” value is recorded as 16.5 (2.03, 133.37). Besides, the “patients with best efficacy evaluation being partial response (PR)” value in experiment [1] (among 20 evaluated patients) is listed as 4 patients. In addition, the “PFS, Median (95% CI)” value in experiment [1] (patients with KDM5A gene mutation (n = 8)) is 145 days and 145.0 (23.0, 145.0) days. Moreover, in experiment [1] (patients with wild-type KDM5A gene (n = 12)), the “PFS, Median (95% CI)” value was 27.5 days and 27.5 (16.0, 61.0) days.
On to `CC[C@@]1(O)C(=O)OCc2c1cc1n(c2=O)Cc2cc3c(CN(C)C)c(O)ccc3nc2-1` [topotecan], for which, in the experiment on SCLC, the “Overall survival, quality of life, improvement of symptoms” value was “significantly better”.
